Measurements as given in patent publication US7410974B2, “Halogenated Quinazolinyl nitrofurans as antibacterial agents” (Ulysses Pharmaceutical Products, Inc., priority 2003, dated 2008).
Values after ≈ are worked out from the molar mass of the structure shown. Like-named read-outs stand apart in the source and are kept apart here.

What was measured:
[1] = test system: E. faecalis ATCC 29212; experiment: MIC broth microdilution (NCCLS); type: cell-based, Enterococcus faecalis; settings: Enterococcus faecalis, ATCC29212; E. faecalis ATCC 29212; read-out: MIC
Procedure: (§1) Minimal Inhibitory Concentration (MIC) Determination. Bacteria (primary strain panel, TABLE 1). Susceptibility tests were performed following the recommendations from the National Committee for Clinical Standards (NCCLS). The MICs were determined by a broth microdilution technique using a final volume of 100 μl of cation-adjusted Mueller Hinton Broth (MHBCA) and a bacterial inoculum of 10^5-10^6 Colony Forming Units (CFU)/ml. The inocula were verified and precisely determined by applying 10-μl drops of 10-fold dilutions onto Triptic Soy Agar plates. The CFU were counted after an incubation of 24 h at 35° C. Any experiment showing an inoculum that was more or less than 10^5-10^6 CFU/ml was rejected. Control antibiotics and test compounds were prepared at a concentration equivalent to 2-fold the highest desired final concentration. Compounds were then diluted directly in the 96-well microtiter plates by serial 2-fold dilutions using a multichannel pipette. Microtiter plates were incubated during 24 h at 35° C. and growth was recorded by using a microtiterplate reader at 650 nm as well as by visual observation. The MIC was defined as the lowest concentration of compound yielding no visible growth. […] Fastidious bacteria. The medium used for Listeria monocytogenes, Neisseria meningitidis, and Campylobacter jejuni was MHBCA containing 2% laked horse blood. The medium used for Haemophilus influenzae and Branhamella (Moraxella) catarrhalis was HTM as recommended by the NCCLS. Cultures of these fastidious bacteria were incubated at 35° C. in a 5% CO2 atmosphere. […] The medium used for Bacteroides fragilis was Wilkins Chalgren broth and growth was allowed under an anaerobic atmosphere at 35° C. for 48 hours.

[2] = test system: S. saprophyticus ATCC 15305; experiment: MIC broth microdilution (NCCLS); type: cell-based, Staphylococcus saprophyticus; settings: Staphylococcus saprophyticus, ATCC15305; S. saprophyticus ATCC 15305; read-out: MIC
Procedure: as §1

[3] = test system: MRSA strain Sa253c; experiment: MIC broth microdilution, antibiotic resistant strain panel; type: cell-based, Staphylococcus aureus; settings: Staphylococcus aureus; multi-resistant MRSA strain Sa253c; read-out: MIC
Procedure: as §1
(§2) Finally, compounds were also tested against populations of various clinical strains (antibiotic resistant strain panel, TABLE 1).

[4] = test system: MRSA strain Sa228c; experiment: as above; type: cell-based, Staphylococcus aureus; settings: Staphylococcus aureus; multi-resistant MRSA strain Sa228c; read-out: MIC
Procedure: as §1, §2

[5] = test system: MRSA strain Sa224c; experiment: as above; type: cell-based, Staphylococcus aureus; settings: Staphylococcus aureus; multi-resistant MRSA strain Sa224c; read-out: MIC
Procedure: as §1, §2

[6] = test system: MRSA strain Sa211c; experiment: as above; type: cell-based, Staphylococcus aureus; settings: Staphylococcus aureus; multi-resistant MRSA strain Sa211c; read-out: MIC
Procedure: as §1, §2

[7] = test system: MRSA strain Sa220c; experiment: as above; type: cell-based, Staphylococcus aureus; settings: Staphylococcus aureus; multi-resistant MRSA strain Sa220c; read-out: MIC
Procedure: as §1, §2

[8] = test system: MRSA strain Sa249c; experiment: as above; type: cell-based, Staphylococcus aureus; settings: Staphylococcus aureus; multi-resistant MRSA strain Sa249c; read-out: MIC
Procedure: as §1, §2

[9] = test system: MRSA strain Sa212c; experiment: as above; type: cell-based, Staphylococcus aureus; settings: Staphylococcus aureus; multi-resistant MRSA strain Sa212c; read-out: MIC
Procedure: as §1, §2

[10] = test system: MRSA strain Sa248c; experiment: as above; type: cell-based, Staphylococcus aureus; settings: Staphylococcus aureus; multi-resistant MRSA strain Sa248c; read-out: MIC
Procedure: as §1, §2

[11] = test system: S. epidermidis ATCC 12228; experiment: MIC broth microdilution (NCCLS); type: cell-based, Staphylococcus epidermidis; settings: Staphylococcus epidermidis, ATCC12228; S. epidermidis ATCC 12228; read-out: MIC
Procedure: as §1

[12] = test system: S. aureus ATCC 29213; experiment: MIC broth microdilution (NCCLS); type: cell-based, Staphylococcus aureus; settings: Staphylococcus aureus, ATCC29213; S. aureus ATCC 29213; read-out: MIC
Procedure: as §1

[13] = test system: E. faecium ATCC 35667; experiment: MIC broth microdilution (NCCLS); type: cell-based, Enterococcus faecium
Procedure: as §1

[14] = test system: S. aureus MRSA COL; experiment: MIC broth microdilution (NCCLS); type: cell-based, Staphylococcus aureus; settings: Staphylococcus aureus, MRSA
Procedure: as §1, with “hours. […]” for “hours.”

[15] = test system: B. catarrhalis ATCC 8176; experiment: Minimal Bactericidal Concentration (MBC); type: cell-based, Branhamella (Moraxella) catarrhalis; settings: Moraxella catarrhalis, ATCC8176, 99.9% killing
Procedure: (§3) Minimal Bactericidal Concentration (MBC). After the microtiter plates were read for the determination of the MIC, a 10-μl sample of each clear well (at least 5 wells without visible growth) was applied onto TSA plates for viable counts determination.
(§4) Petri dishes were incubated at 35° C. for exactly 24 h and bacterial colonies were counted.

[16] = test system: H. influenzae ATCC 49766; experiment: Minimal Bactericidal Concentration (MBC); type: cell-based; settings: Haemophilus influenzae, ATCC49766, 99.9% killing
Procedure: as §3, §4

[17] = test system: B. catarrhalis ATCC 8176; experiment: MIC broth microdilution (NCCLS), fastidious bacteria; type: cell-based, Branhamella (Moraxella) catarrhalis; settings: Moraxella catarrhalis, ATCC8176, HTM, 5% CO2
Procedure: as §1

[18] = test system: H. influenzae ATCC 49247; experiment: as above; type: cell-based; settings: Haemophilus influenzae, ATCC49247, HTM, 5% CO2
Procedure: as §1

[19] = test system: H. influenzae ATCC 49766; experiment: as above; type: cell-based; settings: Haemophilus influenzae, ATCC49766, HTM, 5% CO2
Procedure: as §1

[20] = test system: E. faecium VanA; experiment: MIC broth microdilution, antibiotic resistant strain panel; type: cell-based; settings: Enterococcus faecium; multi-resistant E. faecium VanA; read-out: MIC
Procedure: as §1, §2

[21] = test system: S. typhimurium ATCC14028; experiment: MIC broth microdilution (NCCLS); type: cell-based, Salmonella typhimurium; settings: Salmonella enterica
Procedure: as §1

[22] = test system: Y. enterocolytica ATCC 23715; experiment: MIC broth microdilution (NCCLS); type: cell-based, Yersinia enterocolytica; settings: Yersinia, ATCC23715, read-out: MIC
Procedure: as §1

[23] = test system: A. baumannii ATCC 19606; experiment: MIC broth microdilution (NCCLS); type: cell-based, Acinetobacter baumannii; settings: Acinetobacter baumannii, ATCC19606, read-out: MIC
Procedure: as §1

[24] = test system: E. coli ATCC 25922; experiment: MIC broth microdilution (NCCLS); type: cell-based, Escherichia coli; settings: Escherichia coli, ATCC25922, E. coli ATCC 25922 (Reference); read-out: MIC
Procedure: as §1

[25] = Enterococcus faecium, ATCC35667, E. faecium ATCC 35667, read-out: MIC
[26] = S. aureus MRSA COL, read-out: MIC

Structure (SMILES)	MIC [1] [µg/mL]	MIC [2] [µg/mL]	MIC [11] [µg/mL]	MIC [12] [µg/mL]	MIC [13, 25] [µg/mL]	MIC [14, 26] [µg/mL]	MIC [20] [µg/mL]	MIC [24] [µg/mL]	other results
Cc1onc(-c2ccccc2)c1C(=O)N[C@@H]1C(=O)N2[C@@H]1SC(C)(C)[C@@H]2C(=O)O [Oxacillin]	8 to 16 (≈ 19.9 to 39.9 µM)	1 (≈ 2.49 µM)	0.12 (≈ 0.299 µM)	0.12 to 0.25 (≈ 0.299 to 0.623 µM)	32 (≈ 79.7 µM)	512 (≈ 1280 µM)	–	–	MIC [3]: 1020 µg/mL (≈ 2550 µM); MIC [4]: 128 µg/mL (≈ 319 µM); MIC [5]: 32 to 64 µg/mL (≈ 79.7 to 159 µM); MIC [6]: 16 to 32 µg/mL (≈ 39.9 to 79.7 µM); MIC [7]: 8 to 16 µg/mL (≈ 19.9 to 39.9 µM); MIC [8]: 512 µg/mL (≈ 1280 µM); MIC [9]: 16 µg/mL (≈ 39.9 µM); MIC [10]: 512 µg/mL (≈ 1280 µM); MIC [14]: > 128 µg/mL
CC[C@H]1OC(=O)[C@H](C)[C@@H](O[C@H]2C[C@@](C)(OC)[C@@H](O)[C@H](C)O2)[C@H](C)[C@@H](O[C@@H]2O[C@H](C)C[C@H](N(C)C)[C@H]2O)[C@](C)(OC)C[C@@H](C)C(=O)[C@H](C)[C@@H](O)[C@]1(C)O [Clarithromycin]	16 (≈ 21.4 µM)	–	–	–	–	–	> 128	–	MBC [15]: 1 µg/mL (≈ 1.34 µM); MBC [16]: > 128 µg/mL; MIC [17]: 0.5 µg/mL (≈ 0.668 µM); MIC [18]: 16 µg/mL (≈ 21.4 µM); MIC [19]: 128 µg/mL (≈ 171 µM)
O=C1OCCN1/N=C/c1ccc([N+](=O)[O-])o1 [Furazolidone]	8 to 16 (≈ 35.5 to 71.1 µM)	2 (≈ 8.88 µM)	2 to 4 (≈ 8.88 to 17.8 µM)	4 to 16 (≈ 17.8 to 71.1 µM)	> 128	8 (≈ 35.5 µM)	64 (≈ 284 µM)	1 to 2 (≈ 4.44 to 8.88 µM)	MIC [21]: 2 µg/mL (≈ 8.88 µM); MIC [22]: > 16 µg/mL; MIC [23]: 32 µg/mL (≈ 142 µM); MIC ([13]; E. faecium ATCC 35667): >64 µg/mL
CO/N=C(\C(=O)N[C@@H]1C(=O)N2C(C(=O)O)=C(CSc3nc(=O)c(=O)[nH]n3C)CS[C@H]12)c1csc(N)n1 [Ceftriaxone]	8 (≈ 14.4 µM)	8 (≈ 14.4 µM)	1 (≈ 1.8 µM)	2 (≈ 3.61 µM)	64 (≈ 115 µM)	512 (≈ 923 µM)	–	0.03 to 0.06 (≈ 0.0541 to 0.108 µM)	–
